In patent US11702418B2, “SOS1 inhibitors” (priority 2019, dated 2023):
Where a name gives a salt, the structure may show the parent alone. Read-outs that look alike come from different tables or passages of the source.

Tests used:
[1] = system: pERK in MKN1 cells; test: cells; assay type: cell-based; conditions: Homo sapiens
[2] = biological target: recombinant human SOS1 polypeptide (amino acids 560-1049) (Homo sapiens (Human), UniProt Q07889); test: biochemical; assay type: binding
[3] = system: pERK in NCI-H1435 cells (NF-1 mutant); test: pERK inhibition in NF-1 mutant NCI-H1435 cells (Example F); assay type: cell-based; conditions: NCI-H1435, 1 h, read-out: IC50, pERK inhibition
Procedure: The formaldehyde was discarded from the plates and 150 μL of ice-cold methanol was added to permeabilize the cells for 10 minutes at −20° C. The methanol was discarded from each of the plates and any liquid remaining in the plate by tapping the plate against paper towels. […] The plates were incubated overnight at 4° C. on a shaker.
On Assay day 2, the primary antibody solution was removed. […] The secondary antibody solution as removed and each plate was washed with PBST 3× times. Any liquid remaining was discarded and the plate was imaged using the Licor Odyssey machine according to the manufacturer's instruction, using a set focus length at 3 mm and both 800 nm and 700 nm filters. The GAPDH normalized scan values for each well were divided by the average of vehicle wells to get the % of pERK inhibition. The IC50 values were then calculated with the Graph pad Prism software.

[4] = MKN-1, pERK inhibition, In-Cell Western, MKN1 or H358 cells (Table 24 does not say which), 0.5-1 hour incubation, read-out: IC50
[5] = HTRF displacement, Cy5 labelled tracer, Morrison equation for competitive binding, read-out: Ki, Inhibition of Labeled Tracer Binding to SOS1

Chain of recombinant human SOS1 polypeptide (amino acids 560-1049) (Q07889 560-1049): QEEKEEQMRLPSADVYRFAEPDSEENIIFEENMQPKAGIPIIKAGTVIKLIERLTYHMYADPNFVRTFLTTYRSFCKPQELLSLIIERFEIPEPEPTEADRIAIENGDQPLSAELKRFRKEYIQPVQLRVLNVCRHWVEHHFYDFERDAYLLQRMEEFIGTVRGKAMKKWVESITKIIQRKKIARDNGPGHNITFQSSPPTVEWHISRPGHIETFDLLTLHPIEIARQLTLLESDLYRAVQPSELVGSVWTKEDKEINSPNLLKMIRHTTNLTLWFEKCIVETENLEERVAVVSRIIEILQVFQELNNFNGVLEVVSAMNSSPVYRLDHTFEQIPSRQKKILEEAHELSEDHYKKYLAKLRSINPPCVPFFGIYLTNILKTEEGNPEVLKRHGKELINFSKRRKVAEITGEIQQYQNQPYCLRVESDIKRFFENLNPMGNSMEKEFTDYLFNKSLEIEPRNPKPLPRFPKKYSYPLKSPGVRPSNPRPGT

With `CNC1CCN(c2ccc3c(C)nnc(N[C@H](C)c4cccc(C(F)(F)F)c4C)c3c2)CC1` [Example 10-7, (R)-4-methyl-N-(1-(2-methyl-3-(trifluoromethyl)phenyl)ethyl)-7-(4-(methylamino)piperidin-1-yl)phthalazin-1-amine] the IC50 [1, 4] was 22 nM, the Ki [2, 5] was 0.07 nM and the IC50 [3] was 87 nM.

In the case of `Cc1c([C@@H](C)Nc2nnc(C)c3ccc(O[C@H]4CCNC4)cc23)cccc1C(F)(F)F` [Example 7-3, 4-methyl-N-((R)-1-(2-methyl-3-(trifluoromethyl)phenyl)ethyl)-7-(((S)-pyrrolidin-3-yl)oxy)phthalazin-1-amine], the IC50 [1, 4] is reported as 28 nM, the Ki [2, 5] is reported as 0.32 nM and the IC50 [3] is reported as 55 nM.

With `Cc1c([C@@H](C)Nc2nnc(C)c3ccc(N4CCN(C(=O)C5CCOCC5)CC4)cc23)cccc1C(F)(F)F` [Example 11-2, (R)-(4-(1-methyl-4-((1-(2-methyl-3-(trifluoromethyl)phenyl)ethyl)amino)phthalazin-6-yl)piperazin-1-yl)(tetrahydro-2H-pyran-4-yl)methanone] the IC50 [1, 4] was 27 nM, the Ki [2, 5] was < 0.01 nM and the IC50 [3] was 17 nM.

For `Cc1c([C@@H](C)Nc2nnc(C)c3ccc(N4CCC(N(C)C)CC4)cc23)cccc1C(F)(F)F` [Example 10-8, (R)-7-(4-(dimethylamino)piperidin-1-yl)-4-methyl-N-(1-(2-methyl-3-(trifluoromethyl)phenyl)ethyl)phthalazin-1-amine], the IC50 [1, 4] was 34 nM, the Ki [2, 5] was 0.09 nM and the IC50 [3] was 94 nM.

With `Cc1c([C@@H](C)Nc2nnc(C)c3ccc(N4CCN(C(=O)C5COC5)CC4)cc23)cccc1C(F)(F)F` [Example 11-1, (R)-(4-(1-methyl-4-((1-(2-methyl-3-(trifluoromethyl)phenyl)ethyl)amino)phthalazin-6-yl)piperazin-1-yl)(oxetan-3-yl)methanone] the IC50 [1, 4] was 10 nM, the Ki [2, 5] was 0.01 nM and the IC50 [3] was 6 nM.

`Cc1c([C@@H](C)Nc2nnc(C)c3cnc(N4CCNCC4)cc23)cccc1C(F)(F)F` [Example 6-9, (R)-4-methyl-N-(1-(2-methyl-3-(trifluoromethyl)phenyl)ethyl)-7-(piperazin-1-yl)pyrido[3,4-d]pyridazin-1-amine] was tested, and the IC50 [3] was 52 nM.

`Cc1nnc(N[C@H](C)c2cc(N)cc(C(F)(F)F)c2)c2cc(N3CCOCC3)ccc12` [Example 6-5, (R)-N-(1-(3-amino-5-(trifluoromethyl)phenyl)ethyl)-4-methyl-7-morpholinophthalazin-1-amine] was tested, and the IC50 [1, 4] was 10 nM, the Ki [2, 5] was 0.12 nM and the IC50 [3] was 9 nM.

With `Cc1c(C(F)F)cccc1[C@@H](C)Nc1nnc(C)c2ccc(N3CCNCC3)cc12` [Example 10-4, (R)-N-(1-(3-(difluoromethyl)-2-methylphenyl)ethyl)-4-methyl-7-(piperazin-1-yl)phthalazin-1-amine] the IC50 [1, 4] was 14 nM, the Ki [2, 5] was 0.08 nM and the IC50 [3] was 33 nM.

For `Cc1c([C@@H](C)Nc2nnc(C)c3ccc(N4CCN(c5cnn(C)c5)CC4)cc23)cccc1C(F)(F)F` [Example 10-10, (R)-4-methyl-7-(4-(1-methyl-1H-pyrazol-4-yl)piperazin-1-yl)-N-(1-(2-methyl-3-(trifluoromethyl)phenyl)ethyl)phthalazin-1-amine], the IC50 [1, 4] was 17 nM, the Ki [2, 5] was 0.01 nM and the IC50 [3] was 15 nM.

Compound `Cc1nc(C)n2c1CN(c1ccc3c(C)nnc(N[C@H](C)c4cccc(C(F)(F)F)c4C)c3c1)CC2` [Example 10-11, (R)-7-(1,3-dimethyl-5,6-dihydroimidazo[1,5-a]pyrazin-7(8H)-yl)-4-methyl-N-(1-(2-methyl-3-(trifluoromethyl)phenyl)ethyl)phthalazin-1-amine] has an IC50 [1, 4] of 22 nM, a Ki [2, 5] of 0.01 nM and an IC50 [3] of 63 nM.

`Cc1c([C@@H](C)Nc2nnc(C)c3ccc(OC4CNC4)cc23)cccc1C(F)(F)F` [Example 7-4, (R)-7-(azetidin-3-yloxy)-4-methyl-N-(1-(2-methyl-3-(trifluoromethyl)phenyl)ethyl)phthalazin-1-amine] was tested, and the IC50 [1, 4] was 14 nM, the Ki [2, 5] was 0.47 nM and the IC50 [3] was 83 nM.

Work on `Cc1c([C@@H](C)Nc2nnc(C)c3cnc(N4CCOCC4)cc23)cccc1C(F)(F)F` [Example 6-12, (R)-4-methyl-N-(1-(2-methyl-3-(trifluoromethyl)phenyl)ethyl)-7-morpholinopyrido[3,4-d]pyridazin-1-amine] yielded an IC50 [3] of 63 nM.

`Cc1c([C@@H](C)Nc2nnc(C)c3ccc(N4CCN(C(=O)[C@@H]5CCOC5)CC4)cc23)cccc1C(F)(F)F` [Example 11-4, (4-(1-methyl-4-(((R)-1-(2-methyl-3-(trifluoromethyl)phenyl)ethyl)amino)phthalazin-6-yl)piperazin-1-yl)((R)-tetrahydrofuran-3-yl)methanone] gave an IC50 [1, 4] of 25 nM, a Ki [2, 5] of 0.01 nM and an IC50 [3] of 19 nM.

`Cc1c([C@@H](C)Nc2nnc(C)c3ccc(N4CCC(C)(N)CC4)cc23)cccc1C(F)(F)F` [Example 10-9, (R)-7-(4-amino-4-methylpiperidin-1-yl)-4-methyl-N-(1-(2-methyl-3-(trifluoromethyl)phenyl)ethyl)phthalazin-1-amine] gave an IC50 [1, 4] of 54 nM, a Ki [2, 5] of 0.05 nM and an IC50 [3] of 152 nM.

With `CNCc1c(F)cccc1-c1ccc([C@@H](C)Nc2nnc(C)c3ccc(N4CCOCC4)cc23)s1` [Example 6-6, (R)-N-(1-(5-(3-fluoro-2-((methylamino)methyl)phenyl)thiophen-2-yl)ethyl)-4-methyl-7-morpholinophthalazin-1-amine] the IC50 [1, 4] was 40 nM, the Ki [2, 5] was 0.11 nM and the IC50 [3] was 29 nM.

Work on `Cc1c(C#N)cccc1[C@@H](C)Nc1nnc(C)c2cnc(N3CCC(C)(O)CC3)cc12` [Example 12-53] yielded an IC50 [1, 4] of 47 nM and a Ki [2, 5] of 0.83 nM.

With `COc1cc2c(N[C@H](C)c3ccc(-c4ccccc4CN(C)C)s3)nnc(C(F)(F)F)c2cc1OC` [Example 5-4, (R)—N-(1-(5-(2-((dimethylamino)methyl)phenyl)thiophen-2-yl)ethyl)-6,7-dimethoxy-4-(trifluoromethyl)phthalazin-1-amine] the IC50 [1, 4] was 1620 nM and the Ki [2, 5] was 47.9 nM.

`Cc1nnc(N[C@H](C)c2cc(N)cc(C(F)(F)F)n2)c2cc(N3C[C@H]4CC[C@@H]3CN4C)ncc12` [Example 16-6, N-((R)-1-(4-amino-6-(trifluoromethyl)pyridin-2-yl)ethyl)-4-methyl-7-((1R, 4R)-5-methyl-2,5-diazabicyclo[2.2.2]octan-2-yl)pyrido[3,4-d]pyridazin-1-amine] gave an IC50 [1, 4] of 239 nM and a Ki [2, 5] of 6.5 nM.

In the case of `Cc1nnc(N[C@H](C)c2cc(N)cc(C(F)(F)F)n2)c2cc(N3CC(C)(O)C3)ccc12` [Example 16-10, (R)-1-(4-((1-(4-amino-6-(trifluoromethyl)pyridin-2-yl)ethyl)amino)-1-methylphthalazin-6-yl)-3-methylazetidin-3-ol], the IC50 [1, 4] is reported as 919 nM and the Ki [2, 5] is reported as 81 nM.

`Cc1c([C@@H](C)Nc2nncc3ccc(N4CCC5C4CCCN5C)cc23)cccc1C(F)(F)F` (stereo partly drawn) [Example 1-38, N-((R)-1-(2-methyl-3-(trifluoromethyl)phenyl)ethyl)-7-(4-methyloctahydro-1H-pyrrolo[3,2-b]pyridin-1-yl)phthalazin-1-amine] showed an IC50 [1, 4] of 136 nM and a Ki [2, 5] of 0.5 nM.

For `CNCc1ccccc1-c1ccc([C@@H](C)Nc2nnc(C)c3ccc(N4CCOCC4)cc23)s1` [Example 6-3, (R)-4-methyl-N-(1-(5-(2-((methylamino)methyl)phenyl)thiophen-2-yl)ethyl)-7-morpholinophthalazin-1-amine], the IC50 [1, 4] was 12 nM, the Ki [2, 5] was 0.02 nM and the IC50 [3] was 25 nM.

Work on `Cc1c(C(F)F)cccc1[C@@H](C)Nc1nnc(C)c2cnc(N3CCN4CCOC[C@@H]4C3)cc12` [Example 12-42] yielded an IC50 [1, 4] of 27 nM and a Ki [2, 5] of 0.79 nM.

For `Cc1c([C@@H](C)Nc2nnc(C)c3ccc(N4CCN(C(=O)C5(C(F)(F)F)CC5)CC4)cc23)cccc1C(F)(F)F` [Example 11-3, (R)-(4-(1-methyl-4-((1-(2-methyl-3-(trifluoromethyl)phenyl)ethyl)amino)phthalazin-6-yl)piperazin-1-yl)(1-(trifluoromethyl)cyclopropyl)methanone], the IC50 [1, 4] was 48 nM, the Ki [2, 5] was < 0.01 nM and the IC50 [3] was 62 nM.

Work on `Cc1c(C#N)cccc1[C@@H](C)Nc1nnc(C)c2ccc(N3CCC(N4CCC4)CC3)cc12` [Example 10-68, (R)-3-(1-((7-(4-(azetidin-1-yl)piperidin-1-yl)-4-methylphthalazin-1-yl)amino)ethyl)-2-methylbenzonitrile] yielded an IC50 [1, 4] of 36 nM and a Ki [2, 5] of 0.75 nM.

In the case of `Cc1nnc(N[C@H](C)c2cc(N)cc(C(F)(F)F)n2)c2cc(N3CCOCC3)ccc12` [Example 16-1, (R)—N-(1-(4-amino-6-(trifluoromethyl)pyridin-2-yl)ethyl)-4-methyl-7-morpholinophthalazin-1-amine], the IC50 ([1]; MKN-1, pERK inhibition, In-Cell Western, MKN1 or H358 cells (Table 24 does not say which), 0.5-1 hour incubation) is reported as 245 nM and the Ki [2] is reported as 14.4 nM.

Compound `Cc1c([C@@H](C)Nc2nnc(C)c3ccc(N4CCOC[C@@H]4C)cc23)cccc1C(F)(F)F` [Example 10-6, 4-methyl-N-((R)-1-(2-methyl-3-(trifluoromethyl)phenyl)ethyl)-7-((S)-3-methylmorpholino)phthalazin-1-amine] has an IC50 [1, 4] of 21 nM, a Ki [2, 5] of 0.64 nM and an IC50 [3] of 75 nM.

Work on `Cc1c(C(F)F)cccc1[C@@H](C)Nc1nnc(C)c2ccc(N3CCOCC3)cc12` [Example 10-65, (R)-N-(1-(3-(difluoromethyl)-2-methylphenyl)ethyl)-4-methyl-7-morpholinophthalazin-1-amine Hydrochloride salt] yielded an IC50 ([1]; MKN-1) of 23 nM and a Ki ([2]; read-out: Ki, Inhibition of Labeled Tracer Binding to SOS1) of 0.95 nM.

`CCc1ccc2c(C)nnc(N[C@H](C)c3ccc(-c4ccccc4CNC)s3)c2c1` [8-2, (R)-7-ethyl-4-methyl-N-(1-(5-(2-((methylamino)methyl)phenyl)thiophen-2-yl)ethyl)phthalazin-1-amine] was tested, and the IC50 [1, 4] was 605 nM and the Ki [2, 5] was 3.74 nM.
